Measurements taken from US5763441A, “Compounds for the treatment of disorders related to vasculogenesis and/or angiogenesis” (Sugen, Inc., priority 1995, dated 1998).

Experiments:
[1] = tested on: VEGF-induced "reddening" response and subsequent swelling (FLK-1 receptor); experiment: In vivo VEGF pellet model; parameters: species or system nude mice (Balb/C athymic nu/nu); conditions: scored at 24 hours and 48 hours; drug in methylcellulose disc near VEGF pellet
Source text: In this model, VEGF is packaged into a time-release pellet and implanted subcutaneously on the abdomen of nude mice to induce a `reddening` response and subsequent swelling around the pellet. Potential FLK-1 inhibitors may then be implanted in methylcellulose near the VEGF pellet ito determine whether such inhibitor may be used to inhibit the "reddening" response and subsequent swelling.
1) VEGF--human recombinant lyophilized product is commercially may be obtained from Peprotech, Inc., Princeton Business Park, G2; P.O. box 275, Rocky Hill, N.J. 08553.
2) VEGF packaged into 21 day release pellets were obtained from Innovative Research of America, using patented matrix driven delivery system. Pellets were packaged at […], 0.21, or 2.1 μg VEGF/pellet. These doses approximate 10 and 100 ng/day release of VEGF. (Innovative Research of America, 3361 Executive Parkway, P.O. box 2746, Toledo, Ohio 43606)
Protocol. The following protocol was then followed to conduct the VEGF pellet model:
1) VEGF, purchased from Peprotech, was sent to Innovative Research for Custom Pellet preparation;
2) Methylcellulose prepared at 1.5% (w/v) in sterile water;
3) Drugs solublized in methanol (usual concentration range=10 to 20 mg/ml);
4) Place sterile parafilm in sterile 10 cm plates; […]
9) Mice were scored at 24 hours and 48 hours for reddening and swelling response. […]

FLK-1 receptor = target: T1, FLK-1 receptor (Mus musculus, UniProt P35918); experiment: ELISA assay to measure kinase activity of FLK-1 receptor in FLK-1/NIH cells; assay type: cell-based, murine
T1 construct: expressed in transfected cells; host or cells: NIH3T3C7#3 cells (FLK-1 infected NIH3T3)
Method: ELISA Assay To Measure Kinase Activity Of FLK-1 Receptor In FLK-1/NIH Cells
An ELISA assay was conducted to measure the kinase activity of the FLK-1 receptor and more specifically, the inhibition or activiation of protein tyrosine kinase activity on the FLK-1 receptor.
k. NIH3T3C7#3 Cells (FLK-1 infected cells);
Protocol. The following protocol was used to conduct the ELISA Assay:
1. Coat Corning 96-well elisa plates with 1.0 ug per well Cappel Anti-rabbit IgG antibody in 0.1M Na2CO3 pH 9.6. Bring final volume to 150 ul per well. Coat plates overnight at 4° C. Plates can be kept up to two weeks when stored at 4° C.
2. Grow cells in 30 ml of Growth media 9DMEM. 2.0 mM L-Glutamine, 10% FBS) until confluent in 150 cm tissue culture dishes at 37° C., 5% CO2.
3. Harvest cells by tyrpsination and seed in Corning 25850 polystyrene 96-well roundbottom cell plates, 25.000 cells/well in 200 uL of growth media.
4. Grow cells at least one day at 37° C., 5% CO2.
5. Wash cells with D-PBS 1X.
6. Add 200 ul/well of starvation media (DMEM, 2.0 mM l-Glutamine, 0.1% FBS). Incubate overnight at 37° C., 5% CO2.
7. Dilute Compounds/Extracts 1:20 in polyproplyene 96 well plates using starvation media. Dilute dimethylsulfoxide 1:20 for use in control wells.
8. Remove starvation media from 96 well cell culture plates and add 162 ul of fresh starvation media to each well.
9. Add 18 ul of 1:20 diluted Compound/Extract dilution (from step #7) to each well plus the 1:20 dimethylsulfoxide dilution to the control wells (+/-VEGF), for a final dilution of 1:200 after cell stimulation. Final dimethylsulfoxide is 0.5%. Incubate the plate at 37° C., 5% CO2 for two hours.
10. Remove unbound antibody from Elisa plates by inverting plate to remove liquid. Wash 3 times with TBSW+0.5% Ethanolamine, pH 7.0. Pat the plate on a paper towel to remove excess liquid and bubbles.
11. Block plates with TBSW+0.5% Ethanolamine, pH 7.0. 150 ul per well. Incubate plate thirty minutes while shaking on a microtiter plate shaker.
12. Wash plate 3 times as described in step 10.
13. Add 0.5 ug/well affinity purified anti-flk-1 polyclonal rabbit antiserum. Bring final volume to 150 ul/well with TBSW+0.5k Ethanolamine pH 7.0. Incubate plate for thirty minutes while shaking.
14. Add 180 μl starvation medium to the cells and stimulate cells with 20 ul/well 10.0 mM Sodium Ortho Vanadate and 500 ng/ml VEGF (resulting in a final concentration of 1.0 mM Sodium Ortho Vanadate and 50 ng/ml VEGF per well) for eight minutes at 37° C., 5% CO2. Negative control wells receive only starvation medium.
15. After eight minutes, media are removed from the cells and washed one time with 200 ul/well PBS.
16. Lyse cells in 150 ul/well HNTG while shaking at room temperature for five minutes. HNTG formulation includes sodium ortho vanadate, sodium pyro phosphate and EDTA.
17. Wash Elisa plate three times as described in step 10.
18. Transfer cell lysates from the cell plate to elisa plate and incubate while shaking for two hours. To transfer cell lysate pipette up and down while scrapping the wells.
19. Wash plate three times as described in step 10.
20. Incubate Elisa plate with 0.02 ug/well UB40 in TBSW+05% ethanolamine. Bring final volume to 150 ul/well. Incubate while shaking for 30 minutes.
21. Wash plate three times as described in step 10.
22. Incubate elisa plate with 1:10,000 diluted EIA grade Goat anti-mouse IgG conjugated horseradish peroxidase in TBSW+0.5% ethanolamine, pH 7.0. Bring final volume to 150 ul/well. Incubate while shaking for thirty minutes.
23. Wash plate as described in step 10.
24. Add 100 ul of ABTS/H202 solution to well. Incubate ten minutes while shaking.
25. Add 100 ul of 0.2M HCL for 0.1M HCL final to stop the colordevelopment reaction. Shake 1 minute at room temperature. Remove bubbles with slow stream of air and read the ELISA plate in an ELISA plate reader at 410 nm.

PA-1 = experiment: Tumor xenograft growth inhibition, PA-1 (ovarian); assay type: in vivo, human
Method: (§1) The ability of one of the compounds of the present invention, leflunomide (Compound 40), to inhibit ovarian, melanoma, prostate, lung and mammary tumor cell lines established as SC xenografts was examined. These studies were conducted using doses ranging from 12 to 20 mg/kg/day.
(§2) The tumor cells were implanted subcutaneously into the indicated strains of mice. Treatment was initiated on day 1 post implantation unless otherwise indicated (e.g. treatment of the SCID mouse related to the A375 melanoma cell line began on Day 9). Eight (8) to ten (10) mice comprised each test group.
Animals. Female athymic mice (BALB/c, nu/nu), BALB/c mice, Wistar rats and Fisher 344 rats were obtained from Simonsen Laboratories (Gilroy, Calif.). Female A/I mice were obtained from Jackson Laboratory (Bar Harbor, Me.). DA rats were obtained from B&K Universal, Inc. (Fremont, Calif.). Athymic R/Nu rats, DBA/2N mice, and BALB/c mice were obtained from Harlan Sprague Dawley (Indianapolis, Ind.). […]
Subcutaneous Xenograft Model. […] Tumor growth was measured over 3 to 6 weeks using venier calipers tumor volumes were calculated as a product of length x width x height unless otherwise indicated. P values were calculated using the Students' t-test. su101 in 50-100 uL excipient (dimethylsulfoxide, PBTE, PBTE6C:D5W, or PBTE:D5W) was delivered by IP injection at concentrations indicated in the Figure legends.

PC-3 = experiment: Tumor xenograft growth inhibition, PC-3 (prostate); assay type: in vivo, human
Method: as §1, §2
(§3) Animals. Female athymic mice (BALB/c, nu/nu), BALB/c mice, Wistar rats and Fisher 344 rats were obtained from Simonsen Laboratories (Gilroy, Calif.). Female A/I mice were obtained from Jackson Laboratory (Bar Harbor, Me.). DA rats were obtained from B&K Universal, Inc. (Fremont, Calif.). Athymic R/Nu rats, DBA/2N mice, and BALB/c mice were obtained from Harlan Sprague Dawley (Indianapolis, Ind.). Female C57BL/6 mice were obtained from Taconic (Germantown, N.Y.). All animals were maintained under clean-room conditions in Micro-isolator cages with Alpha-dri bedding. They received sterile rodent chow and water ad libitum.
(§4) Subcutaneous Xenograft Model. Cell lines were grown in appropriate medium as described (See Section 6). Cells were harvested at or near confluency with 0.05% Trypsin-EDTA and pelleted at 450×g for 10 min. Pellets were resuspended in sterile PBS or media (without FBS) to a suitable concentration indicated in the Figure legends and the cells were implanted into the hindflank of mice. Tumor growth was measured over 3 to 6 weeks using venier calipers tumor volumes were calculated as a product of length x width x height unless otherwise indicated. P values were calculated using the Students' t-test. su101 in 50-100 uL excipient (dimethylsulfoxide, PBTE, PBTE6C:D5W, or PBTE:D5W) was delivered by IP injection at concentrations indicated in the Figure legends.

A375 = experiment: Tumor xenograft growth inhibition, A375 (melanoma); assay type: in vivo, human; conditions: for % Inhibition (day): day 31
Method: as §1, §2, §3, §4

Calu-6 = experiment: Tumor xenograft growth inhibition, Calu-6 (lung); assay type: in vivo, human
Source text: The ability of one of the compounds of the present invention, leflunomide (Compound 40), to inhibit ovarian, melanoma, prostate, lung and mammary tumor cell lines established as SC xenografts was examined. […]
as §2, §3, §4

T1 sequence (P35918 20-1345): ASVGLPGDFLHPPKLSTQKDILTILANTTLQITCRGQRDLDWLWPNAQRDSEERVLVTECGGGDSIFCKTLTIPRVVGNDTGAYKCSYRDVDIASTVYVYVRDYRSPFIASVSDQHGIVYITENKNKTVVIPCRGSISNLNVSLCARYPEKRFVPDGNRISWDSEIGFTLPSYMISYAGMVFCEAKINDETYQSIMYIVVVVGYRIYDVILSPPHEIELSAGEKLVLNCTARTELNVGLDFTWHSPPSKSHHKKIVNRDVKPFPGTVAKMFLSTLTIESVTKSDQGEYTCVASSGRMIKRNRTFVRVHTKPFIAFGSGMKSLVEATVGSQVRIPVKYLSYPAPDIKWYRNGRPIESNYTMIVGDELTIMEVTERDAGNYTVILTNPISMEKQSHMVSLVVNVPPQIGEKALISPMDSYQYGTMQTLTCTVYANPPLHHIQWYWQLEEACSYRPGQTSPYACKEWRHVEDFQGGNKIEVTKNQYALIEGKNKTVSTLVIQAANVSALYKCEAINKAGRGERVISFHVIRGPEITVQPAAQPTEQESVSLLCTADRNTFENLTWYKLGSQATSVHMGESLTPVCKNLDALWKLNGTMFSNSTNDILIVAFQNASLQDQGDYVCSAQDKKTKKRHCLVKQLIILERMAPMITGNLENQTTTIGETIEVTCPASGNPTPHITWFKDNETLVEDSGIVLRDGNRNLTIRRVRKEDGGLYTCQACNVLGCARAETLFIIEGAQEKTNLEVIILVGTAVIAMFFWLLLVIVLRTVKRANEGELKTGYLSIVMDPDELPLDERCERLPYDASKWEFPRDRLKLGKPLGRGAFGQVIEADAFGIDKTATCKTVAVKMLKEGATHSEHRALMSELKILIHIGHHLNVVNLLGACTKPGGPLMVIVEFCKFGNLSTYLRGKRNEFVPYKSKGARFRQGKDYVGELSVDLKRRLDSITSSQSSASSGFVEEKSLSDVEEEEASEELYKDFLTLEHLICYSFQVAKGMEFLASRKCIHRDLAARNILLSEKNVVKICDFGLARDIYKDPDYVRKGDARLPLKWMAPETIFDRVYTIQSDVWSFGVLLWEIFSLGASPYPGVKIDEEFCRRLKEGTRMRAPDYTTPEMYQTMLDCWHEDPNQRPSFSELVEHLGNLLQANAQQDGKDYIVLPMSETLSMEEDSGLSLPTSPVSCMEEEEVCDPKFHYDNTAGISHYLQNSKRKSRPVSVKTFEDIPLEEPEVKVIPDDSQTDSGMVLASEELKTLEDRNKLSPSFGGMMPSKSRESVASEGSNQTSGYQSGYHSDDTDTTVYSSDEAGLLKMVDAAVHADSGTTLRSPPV

SMILES: CC(C)c1cc(/C=C(\C#N)C(=O)NCCCc2ccccc2)cc(C(C)C)c1O [Compound 5]
- inhibition of the "reddening" response and subsequent swelling [1]: inhibited the "reddening" response and subsequent swelling
- IC50 (FLK-1 receptor): 0.7 µM

SMILES: COc1cc2ncnc(Nc3ccc(I)cc3)c2cc1OC [Compound 15, 4-(4-iodophenylamino)-6,7-dimethoxy quinazoline]
- inhibition of the "reddening" response and subsequent swelling [1]: inhibited the "reddening" response and subsequent swelling

SMILES: Cc1oncc1C(=O)Nc1ccc(C(F)(F)F)cc1 [Compound 40, leflunomide]
- inhibition of the growth of human ovarian (PA-1) (PA-1; in words): effectively inhibited the growth
- % Inhibition (day) (PA-1; nu/nu, 20 mg/kg/day, day 36, P < 0.04): 53%
- % Inhibition (day) (PC-3; SCID (day 15), 12 mg/kg/day, day 36, P < 0.001): 47%
- inhibition of the growth of human prostate (PC-3) (PC-3; in words): effectively inhibited the growth
- % Inhibition (day) (PC-3; nu/nu, 20 mg/kg/day, day 45, P < 0.01): 71%
- % Inhibition (day) (A375; SCID (day 9), 15 mg/kg/day, P < 0.002): 53%
- inhibition of the growth of human melanoma (A375) (A375; in words): effectively inhibited the growth
- % Inhibition (day) (A375; nu/nu, 20 mg/kg/day, P < 0.03): 53%
- inhibition, CALU-6 (Calu-6; 20 mg/kg/day): 63.9%
- inhibition of the growth of human lung (Calu-6) (Calu-6; in words): effectively inhibited the growth
- % Inhibition (day) (Calu-6; nu/nu, 20 mg/kg/day, day 28, P < 0.0001): 64%
- IC50 (FLK-1 receptor): 54 µM
